Consider 15 compounds from patent US11247965B2 (VenatoRx Pharmaceuticals, Inc., priority 2017, dated 2022).

Read-outs that look alike come from different tables or passages of the source.

One data set concerns HBV. The note with it: Phase 1b clinical trial, 600 mg bid dosing for 29 days; cited from earlier work.
In another data set the test system is HepG2 cells. Nature of the data set: In vitro cytotoxicity, MTT cell viability assay in HepG2 cells. The data set is classed as cell-based. The note with it: human, 7 days. Summed up: (§1)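 Parental HepG2 cells in EMEM + 10% FBS were exposed to compounds (8 half-log dilutions, 30 μM to 1.0 nM) for 7 days at 37 °C, 5% CO2. MTT was then added for 3-4 h, formazan dissolved in DMSO and absorbance read at 492 nm; CC50 came from 4-parameter fits against vehicle controls.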
(In general: Tetrazolium assays rely on reduction of a dye to a coloured formazan, in cell work by metabolically active cells.)

Data set [1] deals with HBV replication in HepAD38 cells. Nature of the data set: Anti-HBV activity in HepAD38 cells, extracellular HBV DNA by QPCR. The data set is classed as cell-based, HBV (genotype D, serotype ayw). Summed up: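 HepAD38 cells (HepG2 with tet-repressible HBV genotype D genome) seeded overnight, tetracycline removed, then treated 7 days with compounds (half-log dilutions, 30 μM–10 nM; 1:200 from DMSO). Supernatant HBV DNA quantified by QPCR against standard curve; % inhibition vs vehicle, EC50 by 4-parameter fit.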

A short description of data set [2]: In vitro cytotoxicity, MTT cell viability assay in HepG2 cells. The data set is classed as cell-based. The note with it: human, Cytotoxicity CC50. Summed up:
as §1

Where [3] appears, read: read-out: Anti-HBV EC50, HepAD38 cells, extracellular HBV DNA by QPCR, 7 days of incubation.
Where [4] appears, read: Hepatitis B virus, HePAD38, 168 h, read-out: Anti-HBV EC50, HepAD38 cells, extracellular HBV DNA by QPCR, 7 days of incubation.

Consider `O=C(Nc1cc(F)c(F)c(F)c1)c1ccc(F)c(S(=O)(=O)N2CCC(O)CC2)c1` [NVR 3-778], for which the “reduction in HBV DNA” value in the data set with HBV was −1.7 log 10.

As usually defined, the CC50 is the concentration at which the toxic effect on the cells reaches its halfway point. A lower CC50 goes with harm at low concentration. By EC50 is commonly meant the midpoint of the concentration-response curve. Consider `Cc1cc(NC(=O)c2ccc(F)c(C(F)(F)C(=O)N3C4CCC3CC(O)(CO)C4)c2)ccc1F` (single isomer, unassigned; isomer 2) [Example 275], for which the CC50 in the data set on HepG2 cells is more than 30 µM. Besides, the EC50 in data set [1] (setting [3]) is less than 5 µM.

In turn, `Cc1cc(NC(=O)c2c(C)c(C(O)(C(=O)NC(C)(C)C)C(F)(F)F)c(C)n2C)ccc1F` (centres unmarked) [Example 155, 4-(3-(tert-butylamino)-1,1,1-trifluoro-2-hydroxy-3-oxopropan-2-yl)-N-(4-fluoro-3-methylphenyl)-1,3,5-trimethyl-1H-pyrrole-2-carboxamide] yielded a CC50 in the data set with HepG2 cells of 5 to 30 µM. For the same compound, the EC50 in data set [1] (setting [3]) was less than 5 µM.

For the compound `O=C(Nc1ccc(F)c(F)c1)c1ccc(F)c(C(F)(F)C(=O)NC2CCC(O)CC2)c1` (centres unmarked) [Example 27, 3-(1,1-difluoro-2-(((1s,4s)-4-hydroxycyclohexyl)amino)-2-oxoethyl)-N-(3,4-difluorophenyl)-4-fluorobenzamide], in the data set on HepG2 cells, the CC50 is 5 to 30 µM. The EC50 in data set [1] (setting [3]) is less than 5 µM.

`Cc1cc(NC(=O)c2ccc(F)c(C(F)(F)C(=O)N3C4CCC3CC(O)(CO)C4)c2)ccc1F` (single isomer, unassigned; isomer 1) [Example 274] showed a CC50 in the data set with HepG2 cells of less than 5 µM. For the same compound, the EC50 in data set [1] (setting [4]) was less than 5 µM.

In the case of `N#Cc1cc(NC(=O)c2ccc(F)c(C(F)(F)C(=O)N3[C@@H]4CC[C@H]3C[C@@H](O)C4)c2)ccc1F` [Example 178, N-(3-cyano-4-fluorophenyl)-3-(1,1-difluoro-2-((1R,3r,5S)-3-hydroxy-8-azabicyclo[3.2.1]octan-8-yl)-2-oxoethyl)-4-fluorobenzamide], in the data set with HepG2 cells, the CC50 is more than 30 µM. In addition, in data set [1] (setting [4]), the EC50 was less than 5 µM.

As to `N#Cc1cc(NC(=O)c2ccc(F)c(C(F)(F)C(=O)N3CCC(O)C(F)(F)C3)c2)ccc1F` (centres unmarked) [Example 191, N-(3-cyano-4-fluorophenyl)-3-(2-(3,3-difluoro-4-hydroxypiperidin-1-yl)-1,1-difluoro-2-oxoethyl)-4-fluorobenzamide], the CC50 in the data set with HepG2 cells fell in the range of 5 to 30 µM. Also, the EC50 in data set [1] (setting [3]) was less than 5 µM.

The compound `N#Cc1cc(NC(=O)c2ccc(F)c(C(F)(F)C(=O)N3[C@@H]4CC[C@H]3C[C@@H](O)C4)c2)ccc1F` [Example 192, N-(3-cyano-4-fluorophenyl)-3-(1,1-difluoro-2-((1R,3r,5S)-3-hydroxy-8-azabicyclo[3.2.1]octan-8-yl)-2-oxoethyl)-4-fluorobenzamide] had a CC50 in the data set on HepG2 cells of 5 to 30 µM. Moreover, the EC50 in data set [1] (setting [3]) is less than 5 µM.

Regarding `Cc1cc(NC(=O)c2ccc([C@@H](O)CO)c(C(F)(F)C(=O)N3CCC(O)CC3)c2)ccc1F` [Example 116, (R)-3-(1,1-difluoro-2-(4-hydroxypiperidin-1-yl)-2-oxoethyl)-4-(1,2-dihydroxyethyl)-N-(4-fluoro-3-methylphenyl)benzamide], the CC50 at 7 days in data set [2] is more than 30 µM. In addition, the EC50 in data set [1] (setting [4]) is more than 30 µM.

With `Cc1cc(NC(=O)c2csc(C(F)(F)C(=O)N3CCC(O)CC3)n2)ccc1F` [Example 30, 2-(1,1-difluoro-2-(4-hydroxypiperidin-1-yl)-2-oxoethyl)-N-(4-fluoro-3-methylphenyl)thiazole-4-carboxamide], in data set [2], the CC50 at 7 days was in the range of 5 to 30 µM. Also, the EC50 in data set [1] (setting [4]) lay within 5 to 30 µM.

In data set [2], `O=C(Nc1cc(F)c(F)c(F)c1)c1ccc(F)c(C(F)(F)C(=O)N2CCC(O)C(F)(F)C2)c1` (centres unmarked) [Example 187, 3-(2-(3,3-difluoro-4-hydroxypiperidin-1-yl)-1,1-difluoro-2-oxoethyl)-4-fluoro-N-(3,4,5-trifluorophenyl)benzamide] came in with a CC50 at 7 days of 5 to 30 µM. Moreover, the concentration giving a half-maximal response (EC50) in data set [1] (setting [4]) is less than 5 µM.

In data set [2], `Cc1cc(NC(=O)c2ccc(F)c(C(F)(F)C(=O)N3[C@@H]4COC[C@H]3CC(=O)C4)c2)ccc1F` [Example 201, 3-(1,1-difluoro-2-oxo-2-((1R,5S)-7-oxo-3-oxa-9-azabicyclo[3.3.1]nonan-9-yl)ethyl)-4-fluoro-N-(4-fluoro-3-methylphenyl)benzamide] registered a CC50 at 7 days of 5 to 30 µM. Also, the EC50 in data set [1] (setting [4]) is less than 5 µM.

As for `Cc1cc(NC(=O)c2ccnc(C(F)(F)C(=O)N3[C@@H]4CC[C@H]3C[C@H](C(=O)O)C4)c2)ccc1F` [Example 282, (1R,3s,5S)-8-(2,2-difluoro-2-(4-((4-fluoro-3-methylphenyl)carbamoyl)pyridin-2-yl)acetyl)-8-azabicyclo[3.2.1]octane-3-carboxylic acid], in data set [2], the CC50 at 7 days was more than 30 µM. The EC50 in data set [1] (setting [4]) was in the range of 5 to 30 µM.

`COCC(C)(C)NC(=O)C(F)(F)c1cc(C(=O)Nc2ccc(F)c(C)c2)cn1C` [Example 132, 5-(1,1-difluoro-2-((1-methoxy-2-methylpropan-2-yl)amino)-2-oxoethyl)-N-(4-fluoro-3-methylphenyl)-1-methyl-1H-pyrrole-3-carboxamide]: in data set [2], the CC50 at 7 days is more than 30 µM. For the same compound, the concentration for a half-maximal effect (EC50) in data set [1] (setting [4]) was less than 5 µM.

In data set [2], `CC(C)(C)NC(=O)C(F)(F)c1cc(C(=O)Nc2ccc(F)c(F)c2)ccc1F` [Example 18, 3-(2-(tert-butylamino)-1,1-difluoro-2-oxoethyl)-N-(3,4-difluorophenyl)-4-fluorobenzamide] returned a CC50 at 7 days of 5 to 30 µM. In data set [1] (setting [4]), the EC50 lay within 5 to 30 µM.
